Data: US20110262945A1, “GLYCOPROTEIN PRODUCTION METHOD AND SCREENING METHOD” (OTSUKA CHEMICAL CO., LTD., priority 2008, published 2011)
Where a SMILES comes first, the peptide text is derived from it. [ ]: non-standard residue; d: D form. Thz = O=C(O)[C@@H]1CSCN1

Assays:
[1] = target: T1, Chymotrypsin (Bos taurus, UniProt P00766); experiment: Michaelis-Menten plot of the substrate peptide (degradation by chymotrypsin); assay type: biochemical; parameters: unit not given here; conditions: 30 minutes at 37° C.
Protocol: (§1) Into 1 mL of a 0.1 M phosphate buffer (pH 8.0, containing BSA (0.1 mg/mL)), 3.1 mg of the 14-residue peptide thus synthesized (SEQ ID NO:16) was dissolved to prepare a 2 mM solution. This solution was diluted to prepare substrate solutions having concentrations of 1.6 mM, 1.2 mM, 0.8 mM, 0.4 mM, 0.2 mM, 0.1 mM, and 0.05 mM. Separately, chymotrypsin (1 mg) was dissolved in 1 mL of a 0.1 M phosphate buffer (pH 8.0, containing BSA (0.1 mg/mL)). The resulting solution was diluted 10-fold, and further diluted 10-fold. The above operation was repeated so that a solution of 0.1 μg/mL was prepared. Into the same Eppendorf tube, 50 μL of a substrate solution of each concentration that was sufficiently cooled on ice and 50 μL of the enzyme solution were transferred, followed by incubation for 30 minutes at 37° C. After 30 minutes, the reaction was terminated by addition of 10 μL of 1N hydrochloric acid. Then, 20 μL of the resulting reaction solution was mixed with 80 μL of buffer to make up a total of 100 μL, which was then measured by HPLC. A degradation rate per unit time (a reaction rate per unit time) was calculated from the peak area of HPLC of the reaction product (FIG. 36).

[2] = target: T1, Chymotrypsin; experiment: Lineweaver-Burk plot of the substrate peptide (degradation by chymotrypsin); assay type: biochemical; conditions: 30 minutes at 37° C.
Protocol: as §1, with “mg/mL)), 1.5” for “mg/mL)), 3.1”, “a 1” for “a 2”, “of 1” for “of 1.6”, “mM, 500 μM, 333 μM, 250 μM,” for “mM, 1.2 mM, 0.8 mM, 0.4 mM, 0.2 mM, 0.1 mM,”, “and 200 μM.” for “and 0.05 mM.”, “(FIG. 37).” for “(FIG. 36).”

V (reaction rate per unit time) ([1]; substrate 0.05 mM): 0.013
V (reaction rate per unit time) ([1]; substrate 0.1 mM): 0.027
V (reaction rate per unit time) ([1]; substrate 0.2 mM): 0.046
V (reaction rate per unit time) ([1]; substrate 0.4 mM): 0.068
V (reaction rate per unit time) ([1]; substrate 0.6 mM): 0.075
V (reaction rate per unit time) ([1]; substrate 0.8 mM): 0.083
V (reaction rate per unit time) ([1]; substrate 1 mM): 0.087
1/V (inverse of the reaction rate) ([2]; 1/Substrate 2 1/mM): 7.02 mol⁻¹ min⁻¹
1/V (inverse of the reaction rate) ([2]; 1/Substrate 4 1/mM): 8.51 mol⁻¹ min⁻¹
1/V (inverse of the reaction rate) ([2]; 1/Substrate 6 1/mM): 11.9 mol⁻¹ min⁻¹
1/V (inverse of the reaction rate) ([2]; 1/Substrate 8 1/mM): 10.9 mol⁻¹ min⁻¹
1/V (inverse of the reaction rate) ([2]; 1/Substrate 10 1/mM): 14.7 mol⁻¹ min⁻¹
SMILES: C[C@@H](O)[C@H](NC(=O)[C@H](CCCCN)NC(=O)[C@H](CC(N)=O)NC(=O)[C@H](CC(=O)O)NC(=O)[C@H](CO)NC(=O)CNC(=O)[C@@H]1CSCN1)C(=O)N[C@@H](Cc1ccc(O)cc1)C(=O)NCC(=O)N[C@@H](CC(N)=O)C(=O)N[C@@H](CCCCN)C(=O)N[C@@H](CS)C(=O)N[C@@H](CC(N)=O)C(=O)N[C@@H](Cc1ccccc1)C(=O)O [substrate peptide] (H-[Thz]GSDNKTYGNKCNF-OH)
